From US9469615B2, “Quinoxalines and AZA-quinoxalines as CRTH2 receptor modulators” (Merck Sharp & Dohme Corp., priority 2010, dated 2016)

biological target: T1, hCRTH2 (Homo sapiens, UniProt Q9Y5Y4); experiment: Radioligand binding assay ([3H]PGD2 competition, HEK-hCRTH2 membranes); details: [3H]PGD2 binding, rated A-E (Table A)
T1 construct: expressed in transfected cells; host or cells: HEK (human embryonic kidney) cells expressing hCRTH2; membrane preparation
T1 sequence (Q9Y5Y4 1-395): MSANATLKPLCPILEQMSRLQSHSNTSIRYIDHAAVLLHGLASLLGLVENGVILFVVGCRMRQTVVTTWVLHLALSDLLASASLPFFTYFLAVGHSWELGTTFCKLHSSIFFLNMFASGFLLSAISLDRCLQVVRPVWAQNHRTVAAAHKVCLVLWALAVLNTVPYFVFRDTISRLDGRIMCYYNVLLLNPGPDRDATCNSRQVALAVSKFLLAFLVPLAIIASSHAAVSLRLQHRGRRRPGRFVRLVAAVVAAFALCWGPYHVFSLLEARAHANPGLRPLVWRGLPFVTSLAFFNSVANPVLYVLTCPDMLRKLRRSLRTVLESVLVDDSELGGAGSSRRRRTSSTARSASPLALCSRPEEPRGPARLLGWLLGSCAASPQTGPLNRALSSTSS
Experimental: Biological Assays Radioligand Binding Assay.
Radioligand binding assays were performed at room temperature in 50 mM Tris-HCl pH 7.4, 1 mM EDTA containing 2 mM MnCl2 and 3.0 nM [^3H]PGD2 (New England Nuclear, Boston, Mass.) (171 Ci mmol^−1), in a final volume of 0.2 mL. Competing ligands were diluted in dimethylsulfoxide (Me2SO) that was kept constant at 1% (v/v) of the final incubation volume. The reaction was initiated by the addition of 8-20 μg of membrane protein prepared from a human embryonic kidney (HEK)-hCRTH2 cell line. Total and non-specific binding were determined in the absence and the presence of 10 μM PGD2, respectively. […] The reaction was routinely conducted for 60 min at room temperature and terminated by rapid filtration through prewetted (0.3% polyethyleneimine) 96-well printed Filtermate™ (Wallac) using a Tomtec® harvester (Hamden, Conn.). After washing with cold buffer, the filter was dried for 2 minutes in microwave, and Meltilex Scintillator sheet (Wallac) was melted on for 2 min. The radioactivity was measured with Betaplate model 1205 (Wallac).

SMILES	Ki
C[C@@H](NC(=O)c1ccc2nc(-c3ccc(Cl)cc3)c(CC3CCC(C(=O)O)C3)nc2c1)c1ccc(F)cc1 (mixture of isomers) [compound 28, 3-((3-(4-chlorophenyl)-7-((R)-1-(4-fluorophenyl)ethylcarbamoyl)quinoxalin-2-yl)methyl)cyclopentanecarboxylic acid]	0.0021 to 0.02 µM
O=C(N[C@@H]1CCCc2ccccc21)c1ccc2nc(-c3ccccc3)c(CCCC(F)C(=O)O)nc2c1 (mixture of isomers) [compound 38, 2-fluoro-5-(3-phenyl-7-(((R)-1,2,3,4-tetrahydronaphthalen-1-yl)carbamoyl)quinoxalin-2-yl)pentanoic acid]	0.0201 to 0.2 µM
CC(NC(=O)c1ccc2nc(-c3ccc(C(F)(F)F)cc3)c(CCCCC(=O)O)nc2c1)c1ccc(-c2ccccc2)cc1 (racemic) [4E, 7-[[(1-[1,1′-biphenyl]-4-ylethyl)amino]carbonyl]-3-[4-(trifluoromethyl)-phenyl]-2-quinoxaline-pentanoic acid]	0.0001 to 0.002 µM
CC(NC(=O)c1ccc2nc(-c3ccc(C(F)(F)F)cc3)c(CCCCC(=O)O)nc2c1)c1ccc(-c2ccccc2)cc1 (single isomer, unassigned) [4F, 7-[[(1-[1,1′-biphenyl]-4-ylethyl)amino]carbonyl]-3-[4-(trifluoromethyl)-phenyl]-2-quinoxaline-pentanoic acid]	0.0021 to 0.02 µM
CC(NC(=O)c1ccc2nc(-c3ccc(C(F)(F)F)cc3)c(CCCCC(=O)O)nc2c1)c1ccc(-c2ccccc2)cc1 (single isomer, unassigned) [4G, 7-[[(1-[1,1′-biphenyl]-4-ylethyl)amino]carbonyl]-3-[4-(trifluoromethyl)-phenyl]-2-quinoxaline-pentanoic acid]	0.0021 to 0.02 µM
O=C(O)C1CC1CCc1nc2cc(C(=O)N3CCC(c4ccccc4)CC3)ccc2nc1-c1ccccc1 (single isomer, unassigned) [20F, 2-(2-(3-phenyl-7-(4-phenylpiperidine-1-carbonyl)quinoxaline-2-yl)ethyl)cyclopropanecarboxylic acid]	0.0021 to 0.02 µM
O=C(O)C1CC1CCc1nc2cc(C(=O)N3CCC(c4ccccc4)CC3)ccc2nc1-c1ccccc1 (single isomer, unassigned) [20G, 2-(2-(3-phenyl-7-(4-phenylpiperidine-1-carbonyl)quinoxaline-2-yl)ethyl)cyclopropanecarboxylic acid]	0.0021 to 0.02 µM
O=C(O)C1CC1CCc1nc2cc(C(=O)N3CCC(c4ccccc4)CC3)ccc2nc1-c1ccccc1 (single isomer, unassigned) [20H, 2-(2-(3-phenyl-7-(4-phenylpiperidine-1-carbonyl)quinoxaline-2-yl)ethyl)cyclopropanecarboxylic acid]	0.0021 to 0.02 µM
O=C(N[C@@H]1CCCc2ccccc21)c1ccc2nc(-c3ccccc3)c(CCCC(F)C(=O)O)nc2c1 (single isomer, unassigned) [38A]	0.0201 to 0.2 µM
O=C(N[C@@H]1CCCc2ccccc21)c1ccc2nc(-c3ccccc3)c(CCCC(F)C(=O)O)nc2c1 (single isomer, unassigned) [38B]	0.0201 to 0.2 µM
O=C(O)C1CC1CCc1nc2cc(C(=O)N3CCC(c4ccccc4)CC3)ccc2nc1-c1ccccc1 (single isomer, unassigned) [compound 20, 2-(2-(3-phenyl-7-(4-phenylpiperidine-1-carbonyl)quinoxaline-2-yl)ethyl)cyclopropanecarboxylic acid]	0.0201 to 0.2 µM
CC(NC(=O)c1ccc2nc(-c3ccc(Cl)cc3)c(CCCCC(=O)O)nc2c1)c1ccccn1 (stereo in doubt) [16AA, 3-(4-chlorophenyl)-7-[[[1(S)-(2-pyridinyl)ethyl]amino]carbonyl]-2-quinoxalinepentanoic acid]	0.0001 to 0.002 µM
O=C(O)CCCCc1nc2cc(C(=O)N3CCC(c4ccccc4)C3)ccc2nc1-c1ccc(C(F)(F)F)cc1 (stereo in doubt) [compound 152, 7-[(3R)-phenyl-1-pyrrolidinyl)carbonyl]-3-[4-(trifluoromethyl)phenyl]-2-quinoxalinepentanoic acid]	0.0021 to 0.02 µM
O=C(O)CCCCc1nc2cc(C(=O)N3CCC(c4ccccc4)C3)ccc2nc1-c1ccc(C(F)(F)F)cc1 (stereo in doubt) [compound 153, 7-[(3(S)-phenyl-1-pyrrolidinyl]carbonyl]-3-[4-(trifluoromethyl)phenyl]-2-quinoxalinepentanoic acid]	0.0001 to 0.002 µM
CC(NC(=O)c1ccc2nc(-c3ccc(C(F)(F)F)cc3)c(CCCCC(=O)O)nc2c1)c1ccncc1 (stereo not drawn) [3AA, 7-[[[1-(4-pyridinyl)ethyl]-amino]carbonyl]-3-[4-(trifluoromethyl)-phenyl]-2-quinoxaline-pentanoic acid]	0.0021 to 0.02 µM
CC(NC(=O)c1ccc2nc(-c3ccc(C(F)(F)F)cc3)c(CCCCC(=O)O)nc2c1)c1ccccn1 (stereo not drawn) [3AB, 7-[[[1-(2-pyridinyl)ethyl]-amino]carbonyl]-3-[4-(trifluoromethyl)phenyl]-2-quinoxalinepentanoic acid]	0.0021 to 0.02 µM
O=C(O)CCCCc1nc2cc(C(=O)NCc3ccncc3)ccc2nc1-c1ccc(C(F)(F)F)cc1 [3AC, 7-[[(4-pyridinylmethyl)-amino]carbonyl]-3-[4-(trifluoromethyl)phenyl]-2-quinoxalinepentanoic acid]	0.0021 to 0.02 µM
O=C(O)CCCCc1nc2cc(C(=O)NCc3cccnc3)ccc2nc1-c1ccc(C(F)(F)F)cc1 [3AD]	0.0021 to 0.02 µM
O=C(O)CCCCc1nc2cc(C(=O)NCc3ccccn3)ccc2nc1-c1ccc(C(F)(F)F)cc1 [3AE, 7-[[(2-pyridinylmethyl)-amino]carbonyl]-3-[4-(trifluoromethyl)phenyl]-2-quinoxalinepentanoic acid]	0.0021 to 0.02 µM
O=C(O)CCCCc1nc2cc(C(=O)NCc3ccc(C(F)(F)F)nc3)ccc2nc1-c1ccc(C(F)(F)F)cc1 [3AF, 3-[4-(trifluoromethyl)phenyl]-7-[[[[6-(trifluoromethyl)-3-pyridinyl]methyl]amino]-carbonyl]-2-quinoxaline-pentanoic acid]	0.0021 to 0.02 µM
COC(=O)c1ccc2nc(-c3ccc(C(F)(F)F)cc3)c(CCCCC(=O)O)nc2c1 [3AG, 7-(methoxycarbonyl)-3-[4-(trifluoromethyl)phenyl]-2-quinoxalinepentanoic acid]	0.0021 to 0.02 µM
O=C(O)CCCCc1nc2cc(C(=O)Nc3ccc(F)cc3)ccc2nc1-c1cccc(F)c1 [3T, 3-(3-fluorophenyl)-7-[[(4-fluorophenyl)amino]carbonyl]-2-quinoxalinepentanoic acid]	0.0201 to 0.2 µM
O=C(O)CCCCc1nc2cc(C(=O)Nc3cccc(F)c3)ccc2nc1-c1cccc(F)c1 [3U, 3-(3-fluorophenyl)-7-[[(3-fluorophenyl)amino]carbonyl]-2-quinoxalinepentanoic acid]	0.0201 to 0.2 µM
O=C(O)CCCCc1nc2cc(C(=O)Nc3ccccc3F)ccc2nc1-c1cccc(F)c1 [3V, 3-(3-fluoropheny)-7-[[(2-fluorophenyl)amino]carbonyl]-2-quinoxalinepentanoic acid]	0.201 to 0.7 µM
C[C@H](NC(=O)c1ccc2nc(-c3ccc(C(F)(F)F)cc3)c(CCCCC(=O)O)nc2c1)c1ccccc1 [3W, 7-[[(1-(S)-phenylethyl)amino]carbonyl]-3-[4-(trifluoromethyl)phenyl]-2-quinoxalinepentanoic acid]	0.0021 to 0.02 µM
C[C@@H](NC(=O)c1ccc2nc(-c3ccc(C(F)(F)F)cc3)c(CCCCC(=O)O)nc2c1)c1ccccc1 [3X, 7-[[(1-(R)-phenylethyl)amino]carbonyl]-3-[4-(trifluoromethyl)phenyl]-2-quinoxalinepentanoic acid]	0.0021 to 0.02 µM

same assay, conditions: [3H]PGD2 binding, values in text

SMILES	Ki
O=C(O)CCCCc1nc2cc(C(=O)N3CCC(c4ccccc4)C3)ccc2nc1-c1ccc(C(F)(F)F)cc1 (stereo in doubt) [compound 152, 7-[(3R)-phenyl-1-pyrrolidinyl)carbonyl]-3-[4-(trifluoromethyl)phenyl]-2-quinoxalinepentanoic acid]	0.0029 µM
